Laboratory results as given in patent publication US8268849B2, “Multifunctional Antioxidants and methods of use thereof” (priority 2007, dated 2012).

Columns and labels:
[1] = Chelation study by ESI-MS, Fe^2+ solution; format: binding; conditions: 10:1 metal:compound, 45 minutes of mixing
Protocol: (§1) The relative amount of ions bound by JHX-1-JHX-8 was determined by electrospray ionization mass spectrometry (ESI-MS) according to the method of Baron and Hering (Baron and Hering (1998) Spectrometry J. Environ. Qual., 27:844-850). In this method solutions containing Fe^2+, Fe^3+, Cu^1+, Cu^2+, Zn^2+, Ca^2+, Mg^2+ were mixed with compound in ratios of 10:1, 1:1, and 1:10. After 45 minutes of mixing, each solution was directly infused into the MS with constant ionization energy and the relative decreases of the parent peaks in these solutions were determined. […] FIG. 3 illustrates ion binding with increased Fe^+2 concentrations results in decreased compound parent peak heights by ESI-MS when compounds contain appropriate functional groups for metal ion chelation.

[2] = Chelation study by ESI-MS, Fe^3+ solution; format: binding; conditions: 10:1 metal:compound, 45 minutes of mixing
Protocol: as §1

[3] = Chelation study by ESI-MS, Cu^2+ solution; format: binding; conditions: 10:1 metal:compound, 45 minutes of mixing
Protocol: as §1

[4] = Chelation study by ESI-MS, Ca^2+ solution; format: binding; conditions: 10:1 metal:compound, 45 minutes of mixing
Protocol: as §1

[5] = Chelation study by ESI-MS, Mg^2+ solution; format: binding; conditions: 10:1 metal:compound, 45 minutes of mixing
Protocol: as §1

[6] = Chelation studies by ESI-MS, overall statement on ion binding; conditions: binding order Cu^1+=Cu^2+>Fe^2+=Fe^3+>Zn^2+; no binding with Ca^2+ or Mg^2+
Protocol: as §1

[7] = system: SRA-1 human lens epithelial cells; assay: ROS staining (H2DCF-DA) in lens epithelial cells; format: cell-based; conditions: 24 hour incubation, H2DCF-DA stain; for ROS staining, ROS generated by Fenton reaction: 0.1 mM Fe^2+ and 0.1 mM hydrogen peroxide; for ROS staining, ROS initiated by homocysteine: 10 mM homocysteine (ER stress)
Protocol: The SRA-1 human lens epithelium cell line (Ibaraki et al. (1998) Exp. Eye Res., 67:577-85) was used to evaluate the antioxidant activity of JHX-1-8. These cells were cultured in DMEM media containing 10% fetal bovine serum (FBS), glutamine, NaHCO3, penicillin, and streptomycin at 37° C. in humidified atmosphere of 5% CO2 and 95% air until subconfluent (2-4 days). The cells were passaged when 80-90% confluent by treatment with trypsin-EDTA. The cells were plated at a density of 1×10^4 cells onto 96-well plates or 1×10^6 cells onto 100-mm dishes. ROS levels/effects in cells treated with JHX-1-8 were compared to similar cells treated with the water soluble Vitamin E derivative, Trolox (antioxidant control) or no drug (control).
The compounds were initially screened for antioxidant activity in 24 hour cultured SRA-1 human lens epithelial cells. Reactive oxygen species (ROS) in these cells were generated through both the Fenton reaction in which 0.1 mM Fe^2+ and 0.1 mM hydrogen peroxide were added to the culture media, or by culturing the lens with 10 mM homocysteine which induces endoplasmic reticular (ER) stress that results in the unfolded protein response (UPR) that subsequently generates the ROS. ROS were visualized with 2′,7′-dichlorodihydrofluorescein diacetate (DCF) staining. More specifically, after 24 hours of incubation, all cells were washed 2× with PBS and then incubated at room temperature for 1 hour with 10 μM H2DCF-DA (Invitrogen) stain. Fluorescent ROS staining was analyzed by quantifying pixel intensities of images obtained by fluorescent microscopy. As illustrated below in FIGS. 4A and 4B, compounds with chelating groups only produced a dose-dependent reduction in Fenton Reaction generated ROS. […] Indeed, homocysteine activates ER stress which subsequently initiates ROS through an Unfolded Protein Response (UPR).

[8] = Drug levels in target tissues after oral administration; format: in vivo, Sprague Dawley rats; conditions: normal young rats; for drug detected in the brain: chow containing 0.05% drug for 6 days; for Lens drug level / retinal drug level: chow containing 0.05% drug for 6 days (80±10 mg/kg/day), HPLC; for retinal drug level: posterior segment
Protocol: (§2) To determine whether JHX-4 and JHX-8 can reach the target tissues of lens, retina and brain after oral administration, two groups of 4 young (100 g) Sprague Dawley rats were administered rat chow containing 0.05% of either drug for 6 days. […] Lens and posterior segments were homogenized in glass homogenizers in ice-cold PBS, pH 7.4, after addition of an aliquot of JHX-1 as an internal standard. The homogenates were deproteinized with 48 mM NaF and centrifuged. The supernatant was extracted with acetone. The acetone extract was evaporated under vacuum and the residue was dissolved in acetonitrile. Whole brains were similarly extracted; however, brain homogenates were deproteinized with equal amounts of 0.3 N Na2SO4 and 0.3 N Ba(OH)2. Drug levels were measured by reverse-phase HPLC with a Phenomenex LUNA 5 μm C18 column and an isocratic elution of 1:1 MeOH:Water. Detection was conducted at 245 nm and compound levels were quantified using standard curves. Lens and retinal drug levels were 200±11 and 1373±38 ng/mg protein for JHX-4 and 90±5 and 1060±12 ng/mg protein for JHX-8 respectively. Only trace amounts of either compound were detected in the brain.

[9] = system: diabetic cataract formation; assay: Cataract formation in diabetic rats; format: in vivo; conditions: for blood sugar / toxic effects: diabetic rats; for delay of vacuole formation / delay of cortical cataracts / lens sorbitol levels: streptozotocin diabetic rats; for delay of vacuole formation / delay of cortical cataracts: 0.025% in chow; for delay of vacuole formation: versus untreated diabetic group (14 days); for delay of cortical cataracts: versus untreated diabetic group (29 days); for lens sorbitol levels: end of study (47 days)
Protocol: (§3) Diabetes was induced in 100 g Sprague Dawley rats with streptozotocin injection (75 mg/kg) and all rats with blood sugar levels >300 mg/dL were divided into 4 groups of 8 rats each. One group received only standard rat chow (untreated diabetic) while each of the other groups received chow containing either 0.0125% ARI Al1576, 0.025% JHX-4 or 0.025% JHX-8. Lens changes were monitored by at 3-5 day intervals by slit lamp following tropicamide mydriasis. As summarized in FIGS. 8A-8C, vacuole formation began by 14 days in the untreated diabetic group with cortical opacities observed by 29 days and mature cataracts by 44 days. […] In the two antioxidant treated groups, vacuole formation was delayed by 19 and 11 days by JHX-4 and JHX-8, respectively, and cortical cataracts by 9 and 3 days, respectively. At the end of the study (47 days) all rats were equally diabetic with HbA1C levels >11.9%. All eyes were enucleated and lens sorbitol levels were measured as previously described (Kador et al. (2007) J. Ocul. Pharmacol. Ther., 23:116-23). […] Tissue levels of JHX-4 and -8 in the lens, neural retina and brain were determined after 47 days of feeding as described above (FIG. 10). […] Overall drug levels in both the lens and retina were ca. 3-fold higher in the diabetic rats with brain levels also now present. This increase may be due to either an accumulation of drug, or increased permeability of tissues and the BBB to drug in streptozotocin diabetic rats (Mooradian et al. (2005) Diabetes, 54:2977-82).

[10] = Tissue drug levels in diabetic rats after 47 days of feeding; format: in vivo, Sprague Dawley rats
Protocol: as §2, §3

Structure (SMILES): CN(C)S(=O)(=O)N1C(=O)CN(c2ncc(O)cn2)CC1=O [JHX-4, 1-N,N′-dimethylsulfamoyl-4-(5-hydroxy-2-pyrimidyl)piperazine-2,6-dione]
- % Parent Peak Remaining at 10:1 Solution of Metal:Compound [1]: 6.9%
- % Parent Peak Remaining at 10:1 Solution of Metal:Compound [2]: 8.2%
- % Parent Peak Remaining at 10:1 Solution of Metal:Compound [3]: 3.0%
- % Parent Peak Remaining at 10:1 Solution of Metal:Compound [4]: 100.0%
- % Parent Peak Remaining at 10:1 Solution of Metal:Compound [5]: 100.0%
- ion binding [6]: bind ions
- ROS staining, ROS generated by Fenton reaction [7]: protected against ROS
- ROS staining, ROS initiated by homocysteine [7]: reduced ROS staining similar to that with Trolox
- drug detected in the brain [8]: trace amounts
- Lens drug level [8]: 200±11 ng/mg protein
- retinal drug level [8]: 1373±38 ng/mg protein
- blood sugar [9]: did not alter
- toxic effects [9]: No apparent toxic effects
- delay of vacuole formation [9]: 19 days
- delay of cortical cataracts [9]: 9 days
- lens sorbitol levels [9]: did not alter
- brain levels of drug [10]: now present
- drug levels in both the lens and retina, diabetic rats versus normal rats [10]: ca. 3 fold

Structure (SMILES): COc1nc(N2CC(=O)N(S(=O)(=O)N(C)C)C(=O)C2)nc(OC)c1O [JHX-8, 1-N,N′-dimethylsulfamoyl-4-(4,6-dimethoxy-5-hydroxy-2-pyrimidyl)piperazine-2,6-dione]
- % Parent Peak Remaining at 10:1 Solution of Metal:Compound [1]: 7.5%
- % Parent Peak Remaining at 10:1 Solution of Metal:Compound [2]: 8.2%
- % Parent Peak Remaining at 10:1 Solution of Metal:Compound [3]: 3.6%
- % Parent Peak Remaining at 10:1 Solution of Metal:Compound [4]: 100.0%
- % Parent Peak Remaining at 10:1 Solution of Metal:Compound [5]: 100.0%
- ion binding [6]: bind ions
- ROS staining, ROS generated by Fenton reaction [7]: protected against ROS
- ROS staining, ROS initiated by homocysteine [7]: reduced ROS staining similar to that with Trolox
- drug detected in the brain [8]: trace amounts
- Lens drug level [8]: 90±5 ng/mg protein
- retinal drug level [8]: 1060±12 ng/mg protein
- blood sugar [9]: did not alter
- toxic effects [9]: No apparent toxic effects
- delay of vacuole formation [9]: 11 days
- delay of cortical cataracts [9]: 3 days
- lens sorbitol levels [9]: did not alter
- brain levels of drug [10]: now present
- drug levels in both the lens and retina, diabetic rats versus normal rats [10]: ca. 3 fold
